The text below walks through data of patent US5698222A, “Calcium supplement” (Abbott Laboratories, priority 1995, dated 1997).

For data set [1] the following is noted: values from Whiting article; cited from earlier work.
A short description of data set [2]: titratable acidity of calcium sources. It is filed as physicochemical. The note with it: pH 3.5 raised to pH 8.3, 40 g sample. The source says:
Acidity is desired in the liquid nutritional product of the present invention for several reasons such as: to maintain the calcium salt solubility, to complement flavor, to control microbial growth, and to enhance the role of preservatives, specifically potassium benzoate or sodium benzoate. On the other hand, too much acidity can result in increased tartness and sourness that make the product undesirable from a sensory point of view. […] Titratable acidity is an indication of the total acidity of a beverage.

For data set [3] the following is noted: large amounts; cited from earlier work.
The conditions of data set [4]: rats, three weeks, as compared to a control; cited from earlier work.
The conditions of data set [5]: without aluminum-containing drugs; cited from earlier work.
How the values of data set [6] were obtained: In this evaluation solubility was determined by a visual examination.
For data set [7] the following is noted: cited from earlier work.
For data set [8] the following is noted: low birth weight infants; cited from earlier work.
The conditions of data set [9]: piglets; cited from earlier work.

Where a name gives a salt, the structure may show the parent alone. Read-outs that look alike come from different tables or passages of the source.

For `O=C(O)O` [CaCO3 (from Dolomite)], the “Aluminum Content” value in data set [1] is recorded as 171-315 parts per million (ppm).

In the case of `O=C(O)O` [CaCO3 (from fossil shell)], the “Aluminum Content” value in data set [1] was 4,400 parts per million (ppm). Consider `O=C(O)O` [Calcium Carbonate, calcium carbonate], for which the Titratable acidity in data set [2] is recorded as 61.4 mL of 0.1N NaOH. Besides, the adverse effects result in data set [3] is “can lead to constipation and abdominal distention”.

With `[Ca+2].[Cl-].[Cl-]` [Calcium Chloride, calcium chloride], in data set [2], the Titratable acidity was 0.7 mL of 0.1N NaOH. As to `O=C(O)CC(O)(CC(=O)O)C(=O)O` [Calcium Citrate, calcium citrate], in [2], the Titratable acidity was 57.5 mL of 0.1N NaOH. Besides, in data set [4], the relative calcium bioavailability is 110%. Further, in data set [5], the aluminum toxicity risk entry is “does not pose a risk of aluminum toxicity”.

Regarding `[Ca+2].[OH-].[OH-]` [Calcium Hydroxide, calcium hydroxide], in data set [2], the Titratable acidity is recorded as 60.6 mL of 0.1N NaOH. On the same count and under the same terms, the result for `CC(O)C(=O)O` (centres unmarked) [Calcium Lactate, calcium lactate] reads 47.1 mL of 0.1N NaOH.

For the molecule `O=C(O)[C@H](O)[C@@H](O)[C@H](O)[C@H](O)CO` [D-Gluconic-Acid, D-gluconic acid (hemicalcium salt)], in data set [6] (pH 3.5), the “solubility at time of manufacture” value is listed as “soluble”. For the same molecule, in data set [6] (pH 5), the “solubility at 1 month” value was “partially Soluble” and the “solubility at time of manufacture” value is given as “soluble”. `O=P([O-])([O-])[O-].O=P([O-])([O-])[O-].[Ca+2].[Ca+2].[Ca+2]` [Tricalcium Phosphate, tricalcium phosphate]: the Titratable acidity in [2] is reported as 48.6 mL of 0.1N NaOH. Moreover, in data set [4], the relative calcium bioavailability is on record as 110%. On to `O=P(O)(O)OCC(O)CO` (centres unmarked) [glycerophosphate], for which the pKf in data set [7] is reported as 6.1. Regarding calcium citrate malate, the Titratable acidity in [2] is 53.2 mL of 0.1N NaOH.

For calcium glycerophosphate [CaGP], the Titratable acidity in [2] is given as 43.5 mL of 0.1N NaOH. In addition, the “effectiveness as source of calcium in TPN solutions” value in data set [8] and in data set [9] was “as effective as calcium gluconate” throughout.
